The text below walks through data of US8017612B2, “Piperazine compound and use thereof as a HCV polymerase inhibitor” (priority 2006, dated 2011).

Experiment [1] deals with T1, HCV polymerase (NS5B) type 1a (Hepatitis C virus genotype 1a, UniProt P26664).
T1 construct: made in house; host or cells: Escherichia coli (by the 'similar method' of the 1b enzyme)
Description: Assay of enzyme (HCV polymerase) inhibitory activity, type 1a enzyme. The format is biochemical, HCV type 1a (cloned from the blood of patients). The settings on record: HCV polymerase inhibitory activity (IC50), 1a, type 1a enzyme 1.5 μg/ml, 25° C., 60 min. Summed up:
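NS5B Δ47 C-term His6 (type 1a, 1.5 μg/ml); substrate RNA 5 μg/ml; ATP/GTP/CTP 50 μM, UTP 2 μM + [5,6-3H]UTP; Tris pH 7.5, MgCl2 5 mM; 25° C, 60 min. TCA/pyrophosphate stop, GF/B filter, scintillation. IC50 vs no-compound control.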

The target of experiment [2] is T2, HCV polymerase (NS5B) type 1b (Hepatitis C virus genotype 1b, UniProt P26663).
T2 construct: a region encoding NS5B (J Virol 1991 March, 65(3), 1105-13, 544 amino acids after deletion of 47 amino acids on the C-terminal); 6xHis (C); made in house; host or cells: Escherichia coli
Nature of the experiment: Assay of enzyme (HCV polymerase) inhibitory activity, type 1b enzyme. The settings on record: HCV polymerase inhibitory activity (IC50), 1b, type 1b enzyme 0.5 μg/ml, 25° C., 60 min. It counts as biochemical, HCV BK strain (type 1b). Summed up: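 Rxn: NS5B 1b (BK, ΔC47, His6) 0.5 μg/ml; substrate RNA 5 μg/ml; ATP/GTP/CTP 50 μM, UTP 2 μM + [5,6-3H]UTP; 20 mM Tris pH 7.5, 5 mM MgCl2, 50 mM NaCl, 1 mM EDTA/DTT. 25 °C, 60 min. Stop with TCA/pyrophosphate, filter, scintillation count; IC50 vs. untreated.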

The IC50 is the concentration at which inhibition is half-maximal. For `CCCc1ccc(S(=O)(=O)N2CCN(c3cnc(C(=O)O)cn3)C[C@@H]2C(=O)NCc2ccc(CCC)cc2C)cc1` [Example 441, (R)-3-(2-methyl-4-propyl-benzylcarbamoyl)-4-(4-propyl-benzenesulfonyl)-3,4,5,6-tetrahydro-2H-[1,2′]bipyrazinyl-5′-carboxylic acid], the IC50 in experiment [1] and in experiment [2] was less than 100 nM in each case.
`CCOc1ccc(CNC(=O)[C@H]2CN(c3nc(C)c(C(=O)O)s3)CCN2S(=O)(=O)c2ccc(OC(F)(F)F)cc2)cc1` [Example 442, 2-[(R)-3-(4-ethoxy-benzylcarbamoyl)-4-(4-trifluoromethoxy-benzenesulfonyl)-piperazin-1-yl]-4-methyl-thiazole-5-carboxylic acid]: the IC50 in experiment [1] is 100 to 1000 nM; in experiment [2], less than 100 nM.
In the same order, the values of `CC(C)c1ccc(CNC(=O)[C@H]2CN(c3cnc(C(=O)O)c(N)n3)CCN2S(=O)(=O)c2ccc(C(F)(F)F)cc2)cc1` [Example 443, (R)-6′-amino-3-(4-isopropyl-benzylcarbamoyl)-4-(4-trifluoromethyl-benzenesulfonyl)-3,4,5,6-tetrahydro-2H-[1,2′]bipyrazinyl-5′-carboxylic acid] are 100 to 1000 nM and less than 100 nM.
The corresponding values for `CCCc1ccc(CNC(=O)[C@H]2CN(c3nc(C(F)(F)F)c(C(=O)OCC)s3)CCN2S(=O)(=O)c2ccc(OC(F)(F)F)cc2)cc1` [Example 444, 2-[(R)-3-(4-propyl-benzylcarbamoyl)-4-(4-trifluoromethoxy-benzenesulfonyl)-piperazin-1-yl]-4-trifluoromethyl-thiazole-5-carboxylic acid ethyl ester] are 100 to 1000 nM and 100 to 1000 nM.
In the same order, the values of `CC(C)c1ccc(CNC(=O)[C@H]2CN(c3cc(C(=O)O)n(C)n3)CCN2S(=O)(=O)c2ccc(C(F)(F)F)cc2)cc1` [Example 445, 5-[(R)-3-(4-isopropyl-benzylcarbamoyl)-4-(4-trifluoromethyl-benzenesulfonyl)-piperazin-1-yl]-2-methyl-2H-pyrazole-3-carboxylic acid] are 100 to 1000 nM and less than 100 nM.
As to `Cc1nc(N2CCN(S(=O)(=O)c3ccc(C(F)(F)F)cc3)[C@@H](C(=O)NCc3ccc(C(C)C)cc3)C2)sc1C(=O)NS(C)(=O)=O` [Example 446, (R)-4-(5-methanesulfonylaminocarbonyl-4-methyl-thiazol-2-yl)-1-(4-trifluoromethyl-benzenesulfonyl)-piperazine-2-carboxylic acid 4-isopropyl-benzylamide], the values for the IC50 in experiment [1] and in experiment [2] were 100 to 1000 nM and less than 100 nM, respectively.
In the same order, the values of `CCCc1ccc(CNC(=O)[C@H]2CN(c3nc(C)c(C(=O)NS(C)(=O)=O)s3)CCN2S(=O)(=O)c2ccc(OC(F)(F)F)cc2)cc1` [Example 447, (R)-4-(5-methanesulfonylaminocarbonyl-4-methyl-thiazol-2-yl)-1-(4-trifluoromethoxy-benzenesulfonyl)-piperazine-2-carboxylic acid 4-propyl-benzylamide] are 100 to 1000 nM and less than 100 nM.
As for `CCC(F)(F)c1ccc(CNC(=O)[C@H]2CN(c3nc(C)c(C(=O)O)s3)CCN2S(=O)(=O)c2ccc(OC(F)(F)F)cc2)cc1` [Example 448, 2-[(R)-3-[4-(1,1-difluoro-propyl)-benzylcarbamoyl]-4-(4-trifluoromethoxy-benzenesulfonyl)-piperazin-1-yl]-4-methyl-thiazole-5-carboxylic acid], the IC50 in experiment [1] and in experiment [2] was less than 100 nM each time.
As to `CCCc1ccc(CNC(=O)[C@H]2CN(c3cnc(C(=O)O)c(C)n3)CCN2S(=O)(=O)c2ccc(OC(F)(F)F)cc2)cc1` [Example 449, (R)-6′-methyl-3-(4-propyl-benzylcarbamoyl)-4-(4-trifluoromethoxy-benzenesulfonyl)-3,4,5,6-tetrahydro-2H-[1,2′]bipyrazinyl-5′-carboxylic acid], the IC50 in experiment [1] and in experiment [2] was less than 100 nM in each case.
On to `CCCc1ccc(CNC(=O)[C@H]2CN(C(C)=O)CCN2S(=O)(=O)c2ccc(OC(F)(F)F)cc2)cc1` [Example 450, (R)-4-acetyl-1-(4-trifluoromethoxy-benzenesulfonyl)-piperazine-2-carboxylic acid 4-propyl-benzylamide], for which the IC50 in experiment [1] and in experiment [2] was less than 100 nM in each case.
For the molecule `COCc1ccc(CNC(=O)[C@H]2CN(c3nc(C)c(C(=O)O)s3)CCN2S(=O)(=O)c2ccc(OC(F)(F)F)cc2)cc1` [Example 451, 2-[(R)-3-(4-methoxymethyl-benzylcarbamoyl)-4-(4-trifluoromethoxy-benzenesulfonyl)-piperazin-1-yl]-4-methyl-thiazole-5-carboxylic acid], the IC50 in experiment [1] and in experiment [2] was less than 100 nM in each case.
For the molecule `CCCc1ccc(CNC(=O)[C@H]2CN(c3nc(C)c(CO)s3)CCN2S(=O)(=O)c2ccc(OC(F)(F)F)cc2)cc1` [Example 452, (R)-4-(5-hydroxymethyl-4-methyl-thiazol-2-yl)-1-(4-trifluoromethoxy-benzenesulfonyl)-piperazine-2-carboxylic acid 4-propyl-benzylamide], the IC50 in experiment [1] and in experiment [2] was less than 100 nM throughout.
With `CCCc1ccc(CNC(=O)[C@H]2CN(c3nc(C(F)(F)F)c(C(=O)O)s3)CCN2S(=O)(=O)c2ccc(OC(F)(F)F)cc2)cc1` [Example 453, 2-[(R)-3-(4-propyl-benzylcarbamoyl)-4-(4-trifluoromethoxy-benzenesulfonyl)-piperazin-1-yl]-4-trifluoromethyl-thiazole-5-carboxylic acid], the IC50 in experiment [1] and in experiment [2] was less than 100 nM in each case.
With `CCCc1ccc(CNC(=O)[C@H]2CN(c3cc(C)c(O)nn3)CCN2S(=O)(=O)c2ccc(OC(F)(F)F)cc2)cc1` [Example 454, (R)-4-(6-hydroxy-5-methyl-pyridazin-3-yl)-1-(4-trifluoromethoxy-benzenesulfonyl)-piperazine-2-carboxylic acid 4-propyl-benzylamide], the IC50 in experiment [1] and in experiment [2] was less than 100 nM in each case.
For the molecule `CCCc1ccc(CNC(=O)[C@H]2CN(C(=O)Cn3nnc(CC(=O)OCC)n3)CCN2S(=O)(=O)c2ccc(OC(F)(F)F)cc2)cc1` [Example 455, (2-{2-oxo-2-[(R)-3-(4-propyl-benzylcarbamoyl)-4-(4-trifluoromethoxy-benzenesulfonyl)-piperazin-1-yl]-ethyl}-2H-tetrazol-5-yl)-acetic acid ethyl ester], the IC50 in experiment [1] and in experiment [2] was less than 100 nM in each case.
`CCCc1ccc(CNC(=O)[C@H]2CN(C(=O)Cn3nnnc3C)CCN2S(=O)(=O)c2ccc(OC(F)(F)F)cc2)cc1` [Example 456, (R)-4-[2-(5-methyl-tetrazol-1-yl)-acetyl]-1-(4-trifluoromethoxy-benzenesulfonyl)-piperazine-2-carboxylic acid 4-propyl-benzylamide]: the half-inhibitory concentration (IC50) in experiment [1] and in experiment [2] was less than 100 nM throughout.
As for `CCCc1ccc(CNC(=O)[C@H]2CN(C(=O)Cn3nnc(C)n3)CCN2S(=O)(=O)c2ccc(OC(F)(F)F)cc2)cc1` [Example 457, (R)-4-[2-(5-methyl-tetrazol-2-yl)-acetyl]-1-(4-trifluoromethoxy-benzenesulfonyl)-piperazine-2-carboxylic acid 4-propyl-benzylamide], the IC50 in experiment [1] and in experiment [2] was less than 100 nM each time.
As for `CCCc1ccc(CNC(=O)[C@H]2CN(c3ccc(N)cn3)CCN2S(=O)(=O)c2ccc(OC(F)(F)F)cc2)cc1` [Example 458, (R)-4-(5-amino-pyridin-2-yl)-1-(4-trifluoromethoxy-benzenesulfonyl)-piperazine-2-carboxylic acid 4-propyl-benzylamide], the IC50 in experiment [1] and in experiment [2] was less than 100 nM in each case.
Consider `CCC(F)(F)c1ccc(CNC(=O)[C@H]2CN(C(C)=O)CCN2S(=O)(=O)c2ccc(OC(F)(F)F)cc2)cc1` [Example 459, (R)-4-acetyl-1-(4-trifluoromethoxy-benzenesulfonyl)-piperazine-2-carboxylic acid 4-(1,1-difluoro-propyl)-benzylamide], for which the IC50 in experiment [1] and in experiment [2] was less than 100 nM in each case.
Consider `CCCc1ccc(CNC(=O)[C@H]2CN(C(=O)Cn3ncnn3)CCN2S(=O)(=O)c2ccc(OC(F)(F)F)cc2)cc1` [Example 460, (R)-4-(2-tetrazol-2-yl-acetyl)-1-(4-trifluoromethoxy-benzenesulfonyl)-piperazine-2-carboxylic acid 4-propyl-benzylamide], for which the IC50 in experiment [1] and in experiment [2] was less than 100 nM each time.
As for `CCCc1ccc(CNC(=O)[C@H]2CN(C(=O)Cn3cnnn3)CCN2S(=O)(=O)c2ccc(OC(F)(F)F)cc2)cc1` [Example 461, (R)-4-(2-tetrazol-1-yl-acetyl)-1-(4-trifluoromethoxy-benzenesulfonyl)-piperazine-2-carboxylic acid 4-propyl-benzylamide], the IC50 in experiment [1] and in experiment [2] was less than 100 nM in each case.
In the case of `CCCc1ccc(CNC(=O)[C@H]2CN(C(=O)Cn3ccnc3)CCN2S(=O)(=O)c2ccc(OC(F)(F)F)cc2)cc1` [Example 462, (R)-4-(2-imidazol-1-yl-acetyl)-1-(4-trifluoromethoxy-benzenesulfonyl)-piperazine-2-carboxylic acid 4-propyl-benzylamide], the IC50 in experiment [1] and in experiment [2] was less than 100 nM each time.
